# Legend:
# Assay in all cases: biochemical
# Set-up in all cases: Thermo Fisher in vitro kinase panel, per cent inhibition of kinase activity at 10 uM
# CAMK2B (CaMKII beta) = CAMK2B (CaMKII beta) (Homo sapiens, UniProt Q13554)
# Description: (§1) Kinase profiling of SMER28 and analogs SMER28 and analogs were tested at 10 µM in a panel of 123 kinases at ThermoFisher Scientific. Follow-up of selected kinases for SMER28 and analogs was also performed at ThermoFisher Scientific. Data are shown in Supplementary Data 2 and 3. […] An inhibition of PIK3C could induce autophagy, mediated by signaling through the AKT/mTOR axis[45].
# CDK1/cyclin B = CDK1/cyclin B (Homo sapiens, UniProt P06493)
# Description: as §1
# CDK9/cyclin T1 = CDK9/cyclin T1 (Homo sapiens, UniProt P50750)
# Description: as §1
# CHEK1 (CHK1) = CHEK1 (CHK1) (Homo sapiens, UniProt O14757)
# Description: as §1
# CSNK2A2 (CK2 alpha 2) = CSNK2A2 (CK2 alpha 2) (Homo sapiens, UniProt P19784)
# Description: as §1
# EPHA5 = EPHA5 (Homo sapiens, UniProt P54756)
# Description: as §1
# ERBB2 (HER2) = ERBB2 (HER2) (Homo sapiens, UniProt P04626)
# Description: as §1
# FRAP1 (mTOR) = FRAP1 (mTOR) (Homo sapiens, UniProt P42345)
# Description: as §1
# IKBKB (IKK beta) = IKBKB (IKK beta) (Homo sapiens, UniProt O14920)
# Chain of IKBKB (IKK beta) (O14920 whole entry): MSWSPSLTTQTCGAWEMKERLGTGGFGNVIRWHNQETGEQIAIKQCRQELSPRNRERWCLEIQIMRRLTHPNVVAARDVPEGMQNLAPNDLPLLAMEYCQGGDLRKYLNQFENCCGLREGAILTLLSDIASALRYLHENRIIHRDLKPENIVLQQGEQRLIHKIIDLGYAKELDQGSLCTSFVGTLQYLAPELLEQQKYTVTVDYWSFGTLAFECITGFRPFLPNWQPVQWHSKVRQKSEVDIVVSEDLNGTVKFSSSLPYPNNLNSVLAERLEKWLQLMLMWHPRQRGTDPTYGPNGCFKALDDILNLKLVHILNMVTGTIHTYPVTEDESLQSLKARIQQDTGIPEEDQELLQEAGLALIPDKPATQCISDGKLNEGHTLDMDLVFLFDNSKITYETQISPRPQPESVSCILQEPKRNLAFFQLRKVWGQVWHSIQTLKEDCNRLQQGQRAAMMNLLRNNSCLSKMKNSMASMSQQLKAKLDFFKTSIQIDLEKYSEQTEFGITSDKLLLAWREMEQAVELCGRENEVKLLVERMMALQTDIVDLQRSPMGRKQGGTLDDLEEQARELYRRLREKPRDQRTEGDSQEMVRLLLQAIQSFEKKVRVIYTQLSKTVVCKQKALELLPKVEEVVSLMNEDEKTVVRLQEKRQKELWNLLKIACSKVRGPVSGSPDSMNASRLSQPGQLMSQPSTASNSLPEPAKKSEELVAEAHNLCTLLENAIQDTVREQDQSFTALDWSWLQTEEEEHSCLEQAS
# Description: as §1
# INSR = INSR (Homo sapiens, UniProt P06213)
# Description: as §1
# INSRR (IRR) = INSRR (IRR) (Homo sapiens, UniProt P14616)
# Chain of INSRR (IRR) (P14616 whole entry): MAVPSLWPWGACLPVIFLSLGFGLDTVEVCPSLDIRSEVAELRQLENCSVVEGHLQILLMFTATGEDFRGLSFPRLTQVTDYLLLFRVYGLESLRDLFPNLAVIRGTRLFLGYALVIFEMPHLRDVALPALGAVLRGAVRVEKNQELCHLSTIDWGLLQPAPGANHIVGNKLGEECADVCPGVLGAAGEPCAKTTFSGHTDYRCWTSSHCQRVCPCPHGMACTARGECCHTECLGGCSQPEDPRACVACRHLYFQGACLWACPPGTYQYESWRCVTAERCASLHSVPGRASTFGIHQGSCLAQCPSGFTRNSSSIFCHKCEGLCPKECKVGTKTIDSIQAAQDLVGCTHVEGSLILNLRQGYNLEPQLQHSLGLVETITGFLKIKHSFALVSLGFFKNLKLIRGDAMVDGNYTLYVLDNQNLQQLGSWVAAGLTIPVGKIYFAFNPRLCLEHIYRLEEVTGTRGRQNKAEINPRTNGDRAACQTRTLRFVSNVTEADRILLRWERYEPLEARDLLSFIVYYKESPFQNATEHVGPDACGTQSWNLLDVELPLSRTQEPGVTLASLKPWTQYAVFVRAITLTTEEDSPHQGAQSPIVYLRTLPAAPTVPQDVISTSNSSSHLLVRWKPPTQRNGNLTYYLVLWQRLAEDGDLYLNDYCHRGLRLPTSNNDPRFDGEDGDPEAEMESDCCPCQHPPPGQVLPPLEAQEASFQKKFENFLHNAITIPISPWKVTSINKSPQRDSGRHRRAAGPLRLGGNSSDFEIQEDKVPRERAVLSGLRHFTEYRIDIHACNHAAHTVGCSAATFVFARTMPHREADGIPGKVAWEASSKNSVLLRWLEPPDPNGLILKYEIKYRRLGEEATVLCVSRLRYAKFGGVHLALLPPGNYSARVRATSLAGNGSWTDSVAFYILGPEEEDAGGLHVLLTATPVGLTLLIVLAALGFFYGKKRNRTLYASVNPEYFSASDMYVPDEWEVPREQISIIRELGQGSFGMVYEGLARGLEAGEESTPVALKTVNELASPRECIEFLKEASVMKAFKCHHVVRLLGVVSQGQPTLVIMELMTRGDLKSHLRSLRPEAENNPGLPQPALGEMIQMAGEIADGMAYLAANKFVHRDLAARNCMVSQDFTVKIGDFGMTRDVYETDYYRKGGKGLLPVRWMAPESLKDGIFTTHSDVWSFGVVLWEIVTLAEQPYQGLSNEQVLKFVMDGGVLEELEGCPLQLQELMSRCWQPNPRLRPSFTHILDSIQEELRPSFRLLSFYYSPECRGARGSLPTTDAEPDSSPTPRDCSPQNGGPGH
# Description: as §1
# MAPK8 (JNK1) = MAPK8 (JNK1) (Homo sapiens, UniProt P45983)
# Description: as §1
# MINK1 = MINK1 (Homo sapiens, UniProt Q8N4C8)
# Description: as §1
# NTRK1 (TRKA) = NTRK1 (TRKA) (Homo sapiens, UniProt P04629)
# Chain of NTRK1 (TRKA) (P04629 whole entry): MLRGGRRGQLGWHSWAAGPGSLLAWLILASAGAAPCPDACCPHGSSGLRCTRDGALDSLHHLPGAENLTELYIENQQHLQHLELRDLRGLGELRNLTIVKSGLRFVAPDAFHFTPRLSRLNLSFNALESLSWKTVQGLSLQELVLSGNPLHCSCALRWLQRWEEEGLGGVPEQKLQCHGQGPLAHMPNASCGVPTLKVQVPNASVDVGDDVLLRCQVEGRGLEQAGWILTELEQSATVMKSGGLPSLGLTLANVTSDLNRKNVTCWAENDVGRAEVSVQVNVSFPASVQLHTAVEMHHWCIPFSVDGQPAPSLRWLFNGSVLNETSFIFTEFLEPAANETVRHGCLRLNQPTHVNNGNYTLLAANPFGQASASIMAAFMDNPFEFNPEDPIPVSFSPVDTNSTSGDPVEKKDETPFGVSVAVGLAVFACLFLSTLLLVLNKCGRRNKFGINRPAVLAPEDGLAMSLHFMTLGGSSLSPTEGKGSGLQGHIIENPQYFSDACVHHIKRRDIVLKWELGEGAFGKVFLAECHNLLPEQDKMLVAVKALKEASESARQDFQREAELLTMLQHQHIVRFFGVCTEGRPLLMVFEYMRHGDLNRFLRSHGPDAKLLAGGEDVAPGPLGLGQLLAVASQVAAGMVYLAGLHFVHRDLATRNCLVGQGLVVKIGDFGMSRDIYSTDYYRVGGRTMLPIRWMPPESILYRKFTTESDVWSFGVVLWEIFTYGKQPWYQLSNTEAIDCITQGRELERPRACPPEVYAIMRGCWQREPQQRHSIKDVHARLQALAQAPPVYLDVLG
# Description: as §1
# PAK2 (PAK65) = PAK2 (PAK65) (Homo sapiens, UniProt Q13177)
# Description: as §1
# PIK3C2A (PI3K-C2 alpha) = PIK3C2A (PI3K-C2 alpha) (Homo sapiens, UniProt O00443)
# Description: as §1
# [1] = target: PIK3CA/PIK3R1 (p110 alpha/p85 alpha) (Homo sapiens, UniProt P42336)
# Description: as §1
# [2] = target: PIK3CB/PIK3R1 (p110 beta/p85 alpha) (Homo sapiens, UniProt P42338)
# Description: as §1
# PRKACA (PKA) = PRKACA (PKA) (Homo sapiens, UniProt P17612)
# Description: as §1
# RET V804L = RET V804L (Homo sapiens, UniProt P07949, V804L)
# Description: as §1
# SRC = SRC (Homo sapiens, UniProt P12931)
# Description: as §1
# TBK1 = TBK1 (Homo sapiens, UniProt Q9UHD2)
# Description: as §1
# TNIK = TNIK (Homo sapiens, UniProt Q9UKE5)
# Chain of TNIK (Q9UKE5 whole entry): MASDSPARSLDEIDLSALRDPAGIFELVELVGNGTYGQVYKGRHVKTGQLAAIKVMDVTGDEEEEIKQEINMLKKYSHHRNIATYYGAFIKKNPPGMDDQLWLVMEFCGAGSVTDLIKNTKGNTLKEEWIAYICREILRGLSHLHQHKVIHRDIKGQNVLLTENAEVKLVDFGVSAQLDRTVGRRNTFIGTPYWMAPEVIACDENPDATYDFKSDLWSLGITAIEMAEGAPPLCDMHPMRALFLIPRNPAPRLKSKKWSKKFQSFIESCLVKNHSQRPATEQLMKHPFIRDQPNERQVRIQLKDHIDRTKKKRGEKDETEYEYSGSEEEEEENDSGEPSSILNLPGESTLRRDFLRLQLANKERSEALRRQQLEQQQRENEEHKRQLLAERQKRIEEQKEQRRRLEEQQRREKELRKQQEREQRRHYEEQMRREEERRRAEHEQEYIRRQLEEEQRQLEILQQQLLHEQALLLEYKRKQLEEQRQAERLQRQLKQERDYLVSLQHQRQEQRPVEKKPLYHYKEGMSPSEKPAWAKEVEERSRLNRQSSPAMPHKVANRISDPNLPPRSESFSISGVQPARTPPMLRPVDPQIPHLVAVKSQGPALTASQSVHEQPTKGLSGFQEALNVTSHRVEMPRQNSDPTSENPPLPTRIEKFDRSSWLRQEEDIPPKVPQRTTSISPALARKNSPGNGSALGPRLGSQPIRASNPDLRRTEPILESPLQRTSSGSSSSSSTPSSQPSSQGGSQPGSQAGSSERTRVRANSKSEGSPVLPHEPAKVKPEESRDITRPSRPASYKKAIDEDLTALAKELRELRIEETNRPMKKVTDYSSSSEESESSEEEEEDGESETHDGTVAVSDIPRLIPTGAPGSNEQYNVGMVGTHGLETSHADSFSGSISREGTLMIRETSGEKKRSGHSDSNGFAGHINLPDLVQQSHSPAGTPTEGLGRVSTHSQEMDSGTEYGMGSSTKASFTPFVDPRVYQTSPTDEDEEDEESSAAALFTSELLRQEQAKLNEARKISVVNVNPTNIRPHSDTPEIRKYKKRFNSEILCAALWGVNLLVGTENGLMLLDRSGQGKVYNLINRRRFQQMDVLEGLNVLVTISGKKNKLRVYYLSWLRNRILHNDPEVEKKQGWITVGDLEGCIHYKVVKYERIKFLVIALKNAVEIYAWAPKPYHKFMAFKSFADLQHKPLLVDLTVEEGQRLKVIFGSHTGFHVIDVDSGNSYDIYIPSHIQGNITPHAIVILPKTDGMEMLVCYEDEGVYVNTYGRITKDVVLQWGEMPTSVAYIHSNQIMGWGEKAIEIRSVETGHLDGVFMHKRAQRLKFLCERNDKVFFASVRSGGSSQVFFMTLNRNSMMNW
# Description: as §1
# TYRO3 (RSE) = TYRO3 (RSE) (Homo sapiens, UniProt Q06418)
# Chain of TYRO3 (RSE) (Q06418 whole entry): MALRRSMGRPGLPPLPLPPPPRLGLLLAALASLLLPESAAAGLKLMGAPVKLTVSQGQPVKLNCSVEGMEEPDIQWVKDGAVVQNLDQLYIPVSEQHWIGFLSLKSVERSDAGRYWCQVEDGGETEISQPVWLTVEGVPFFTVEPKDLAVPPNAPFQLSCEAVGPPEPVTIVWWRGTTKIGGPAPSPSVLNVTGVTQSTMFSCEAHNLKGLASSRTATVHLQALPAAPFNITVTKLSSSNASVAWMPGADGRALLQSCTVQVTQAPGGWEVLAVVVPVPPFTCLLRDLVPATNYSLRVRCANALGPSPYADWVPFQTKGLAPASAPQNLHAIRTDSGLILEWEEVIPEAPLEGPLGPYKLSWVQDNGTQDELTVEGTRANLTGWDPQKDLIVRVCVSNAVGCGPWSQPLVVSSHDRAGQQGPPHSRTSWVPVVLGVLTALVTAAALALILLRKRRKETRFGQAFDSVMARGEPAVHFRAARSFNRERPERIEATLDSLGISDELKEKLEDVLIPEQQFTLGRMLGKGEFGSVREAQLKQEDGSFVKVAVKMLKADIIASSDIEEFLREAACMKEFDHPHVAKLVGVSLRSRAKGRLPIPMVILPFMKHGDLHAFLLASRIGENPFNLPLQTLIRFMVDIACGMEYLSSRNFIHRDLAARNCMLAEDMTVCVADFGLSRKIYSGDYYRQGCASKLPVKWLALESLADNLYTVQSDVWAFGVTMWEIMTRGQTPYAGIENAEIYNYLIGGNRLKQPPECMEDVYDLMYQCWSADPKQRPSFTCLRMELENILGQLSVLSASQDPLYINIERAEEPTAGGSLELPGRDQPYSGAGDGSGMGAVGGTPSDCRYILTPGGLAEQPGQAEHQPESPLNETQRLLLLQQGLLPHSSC
# Description: as §1
# ULK2 = ULK2 (Homo sapiens, UniProt Q8IYT8)
# Description: as §1
smiles,measurement,setting,value
C=CCNc1ncnc2ccc(Br)cc12 [SMER28],inhibition at 10 µM,CAMK2B (CaMKII beta),4%
same,inhibition at 10 µM,CDK1/cyclin B,22%
same,inhibition at 10 µM,CDK9/cyclin T1,40%
same,inhibition at 10 µM,CHEK1 (CHK1),-8%
same,inhibition at 10 µM,CSNK2A2 (CK2 alpha 2),10%
same,inhibition at 10 µM,EPHA5,7%
same,inhibition at 10 µM,ERBB2 (HER2),-1%
same,inhibition at 10 µM,FRAP1 (mTOR),-7%
same,inhibition at 10 µM,IKBKB (IKK beta),17%
same,inhibition at 10 µM,INSR,-1%
same,inhibition at 10 µM,INSRR (IRR),5%
same,inhibition at 10 µM,MAPK8 (JNK1),-2%
same,inhibition at 10 µM,MINK1,45%
same,inhibition at 10 µM,NTRK1 (TRKA),33%
same,inhibition at 10 µM,PAK2 (PAK65),9%
same,inhibition at 10 µM,PIK3C2A (PI3K-C2 alpha),22%
same,inhibition at 10 µM,[1],78%
same,inhibition at 10 µM,[2],23%
same,inhibition at 10 µM,PRKACA (PKA),10%
same,inhibition at 10 µM,RET V804L,30%
same,inhibition at 10 µM,SRC,2%
same,inhibition at 10 µM,TBK1,4%
same,inhibition at 10 µM,TNIK,38%
same,inhibition at 10 µM,TYRO3 (RSE),11%
same,inhibition at 10 µM,ULK2,3%

# From paper PMC9288506, “Compounds activating VCP D1 ATPase enhance both autophagic and proteasomal neurotoxic protein clearance” (Nature Communications, 2022)
